How the values were obtained:
[1] = biological target: T1, Recombinant ROCK1 (amino acids 1-477) (Homo sapiens, UniProt Q13464); assay: ROCK inhibition assay, LANCE Ultra TR-FRET kinase assay; assay type: biochemical; settings: at Km of ATP (table title); method: 1 mM ATP, 50 nM ULight-CREBtide substrate, 1 hour, room temperature
T1 construct: Recombinant ROCK1 (amino acids 1-477)
Method: (§1) Kinase IC50 was determined through an in vitro assay based on LANCE Ultra TR-FRET (Time-Resolved Fluorescence Resonance Energy Transfer) homogeneous technologies method (Perkin Elmer). Recombinant ROCK1 (amino acids 1-477) and ROCK2 (amino acids 5-554) proteins were purchased from Carna Biosciences and SignalChem. Compound activities were measured by Envision and IC50s were calculated. The assays were performed in white LUMITRAC™ 200 96 well half-area microplates from Greiner Bio-One. The kinase reaction buffer consisted of 50 mM HEPES pH 7.5, 1 mM EGTA, 10 mM MgCl2, 2 mM DTT and 0.01% Tween-20. Kinases were incubated with 50 nM (ULight-CREBtide) substrate in the presence of 1 mM (ROCK1) or 1 mM (ROCK2) of ATP. The kinase reaction was carried out for 1 hour before addition of a stopping buffer to a final of 10 mM EDTA and 0.6 nM of LANCE Ultra Europium anti-phospho-CREB (Ser133) antibody (PerkinElmer TRF0200) in LANCE detection buffer. All assay incubations were performed at room temperature, and the microplates were sealed with polyester film during that time. The reaction was incubated for 1 hour, and the signal was read in Envision in TR-FRET mode (excitation at 320 nm and emission at 615/665 nm).
(§2) As used herein, a way to describe potency of inhibitory activity (nM) is a value of inhibitory activity at 50% (IC50).

[2] = biological target: T2, Recombinant ROCK2 (amino acids 5-554) (Homo sapiens, UniProt O75116); assay: as above; assay type: biochemical; settings: at Km of ATP (table title); method: 1 mM ATP, 50 nM ULight-CREBtide substrate, 1 hour, room temperature
T2 construct: ROCK2 (amino acids 5-554)
Method: as §1, §2

T1 sequence (Q13464 1-477): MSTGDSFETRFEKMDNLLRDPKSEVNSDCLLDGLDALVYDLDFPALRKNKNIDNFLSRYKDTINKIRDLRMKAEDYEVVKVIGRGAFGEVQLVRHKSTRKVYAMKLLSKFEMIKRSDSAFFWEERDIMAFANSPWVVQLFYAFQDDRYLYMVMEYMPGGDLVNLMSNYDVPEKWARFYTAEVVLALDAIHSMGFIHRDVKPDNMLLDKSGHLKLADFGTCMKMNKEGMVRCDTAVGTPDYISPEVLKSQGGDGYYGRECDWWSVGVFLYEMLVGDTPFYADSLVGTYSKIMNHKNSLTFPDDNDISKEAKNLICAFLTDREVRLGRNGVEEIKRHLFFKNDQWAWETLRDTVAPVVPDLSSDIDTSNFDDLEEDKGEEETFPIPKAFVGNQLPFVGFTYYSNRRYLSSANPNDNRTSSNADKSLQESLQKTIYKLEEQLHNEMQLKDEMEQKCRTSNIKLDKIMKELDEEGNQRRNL
T2 sequence (O75116 5-554): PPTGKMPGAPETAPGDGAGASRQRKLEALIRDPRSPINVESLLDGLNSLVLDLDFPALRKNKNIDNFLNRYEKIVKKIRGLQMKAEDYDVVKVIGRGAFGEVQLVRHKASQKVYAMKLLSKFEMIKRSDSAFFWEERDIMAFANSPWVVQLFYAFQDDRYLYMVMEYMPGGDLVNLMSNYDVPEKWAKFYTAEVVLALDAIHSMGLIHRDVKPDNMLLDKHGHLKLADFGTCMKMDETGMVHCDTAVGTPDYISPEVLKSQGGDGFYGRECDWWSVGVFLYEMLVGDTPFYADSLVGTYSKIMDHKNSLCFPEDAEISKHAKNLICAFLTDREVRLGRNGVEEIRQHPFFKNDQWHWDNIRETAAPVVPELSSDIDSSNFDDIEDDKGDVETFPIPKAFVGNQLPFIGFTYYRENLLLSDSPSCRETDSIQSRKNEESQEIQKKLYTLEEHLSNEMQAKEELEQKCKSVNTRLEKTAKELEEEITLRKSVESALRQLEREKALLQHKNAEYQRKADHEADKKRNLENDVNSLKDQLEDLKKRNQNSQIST

Row | SMILES | IC50 [1] | IC50 [2]
1 | C[C@@H](O)Cn1cc(C(=O)[C@@H]2COc3ccc(F)cc3C2)c2cnc(-c3cn[nH]c3F)nc21 [Compound 1-50] | < 10 nM | < 10 nM
2 | CC(C)(O)Cn1cc(C(=O)[C@@H]2COc3ccc(Cl)cc3C2)c2cnc(-c3c[nH]nc3Cl)cc21 [Compound 1-17] | < 10 nM | < 10 nM
3 | COc1[nH]ncc1-c1ncc2c(C(=O)C3COc4ccc(F)cc4C3)cn(CC(C)(C)O)c2n1 (centres unmarked) [Compound 1-52] | 51 to 500 nM | 11 to 50 nM
4 | C[C@@H](O)Cn1cc(C(=O)[C@@H]2COc3ccc(Cl)cc3C2)c2cnc(-c3cn[nH]c3Cl)cc21 [Compound 1-10] | 11 to 50 nM | < 10 nM
5 | CC(O)Cn1cc(C(=O)C2COc3ccc(Cl)cc3C2)c2cnc(-c3c[nH]nc3Cl)cc21 (centres unmarked) [Compound 1-6] | 11 to 50 nM | < 10 nM
6 | O=C(c1cn(CCO)c2cc(-c3c[nH]nc3Cl)ncc12)C1COc2ccc(F)cc2C1 (centres unmarked) [Compound 1-13] | 11 to 50 nM | < 10 nM
7 | COc1[nH]ncc1-c1ncc2c(C(=O)C3COc4ccc(Cl)cc4C3)cn(C[C@H](C)O)c2n1 (some centres unmarked) [Compound 1-53] | 51 to 500 nM | 11 to 50 nM
8 | CC(C)(O)Cn1cc(C(=O)C2COc3ccc(Cl)cc3C2)c2cnc(-c3c[nH]nc3Cl)cc21 (centres unmarked) [Compound 1-16] | 11 to 50 nM | < 10 nM
9 | CC(C)(O)Cn1cc(C(=O)[C@H]2COc3ccc(Cl)cc3C2)c2cnc(-c3c[nH]nc3Cl)cc21 [Compound 1-18] | > 501 nM | 51 to 500 nM
10 | COc1n[nH]cc1-c1ccc2c(C(=O)C3COc4ccc(Cl)cc4C3)cn(C[C@@H](C)O)c2c1 (some centres unmarked) [Compound 1-44] | 11 to 50 nM | 11 to 50 nM
11 | COc1ccc2c(c1)CC(C(=O)c1cn(CC(C)(C)O)c3cc(-c4cn[nH]c4F)ncc13)CO2 (centres unmarked) [Compound 1-28] | < 10 nM | < 10 nM
12 | CC(O)Cn1cc(C(=O)[C@@H]2COc3ccc(Cl)cc3C2)c2ccc(-c3c[nH]nc3F)cc21 (some centres unmarked) [Compound 1-41] | 11 to 50 nM | < 10 nM
13 | C[C@H](O)Cn1cc(C(=O)[C@@H]2COc3ccc(Cl)cc3C2)c2cnc(-c3cn[nH]c3Cl)cc21 [Compound 1-9] | 11 to 50 nM | < 10 nM
14 | CC[C@H](O)Cn1cc(C(=O)C2COc3ccc(Cl)cc3C2)c2cnc(-c3cn[nH]c3Cl)cc21 (some centres unmarked) [Compound 1-35] | 51 to 500 nM | 11 to 50 nM

Other lines, results leading:

Row | IC50 [1] | IC50 [2] | SMILES
15 | 51 to 500 nM | 11 to 50 nM | O=C(c1cn(CCO)c2cc(-c3cn[nH]c3)ccc12)C1COc2ccc(Cl)cc2O1 (centres unmarked) [Compound 2-13]
16 | 11 to 50 nM | < 10 nM | COc1[nH]ncc1-c1ncc2c(C(=O)C3COc4ccc(Cl)cc4C3)cn(CC(C)(C)O)c2n1 (centres unmarked) [Compound 1-58]
17 | 11 to 50 nM | < 10 nM | COc1n[nH]cc1-c1ccc2c(C(=O)C3COc4ccc(F)cc4C3)nn(CCO)c2c1 (centres unmarked) [Compound 2-27]
18 | 11 to 50 nM | < 10 nM | O=C(c1nn(CCO)c2cc(-c3cn[nH]c3)ccc12)C1COc2ccccc2C1 (centres unmarked) [Compound 3-2]
19 | 51 to 500 nM | 51 to 500 nM | O=C(c1nn(CCO)c2cc(-c3c[nH]nc3C(F)(F)F)ccc12)C1COc2ccc(F)cc2C1 (centres unmarked) [Compound 2-26]
20 | > 501 nM | 51 to 500 nM | COc1n[nH]cc1-c1ccc2c(C(=O)C3COc4ccc(Cl)cc4C3)nn(CC#N)c2c1 (centres unmarked) [Compound 2-29]
21 | < 10 nM | < 10 nM | CC(C)(O)Cn1cc(C(=O)[C@@H]2COc3ccc(Cl)cc3C2)c2cnc(-c3cn[nH]c3F)nc21 [Compound 1-55]
22 | 51 to 500 nM | 51 to 500 nM | COc1n[nH]cc1-c1ccc2c(C(=O)C3(C)COc4ccccc4O3)nn(CCO)c2c1 (centres unmarked) [Compound 2-31]
23 | > 501 nM | > 501 nM | CC(C)c1n[nH]cc1-c1ccc2c(C(=O)C3COc4ccc(F)cc4C3)nn(CCO)c2c1 (centres unmarked) [Compound 2-28]
24 | < 10 nM | < 10 nM | O=C(c1cn(CCO)c2cc(-c3cn[nH]c3)ccc12)C1COc2ccc(F)cc2C1 (centres unmarked) [Compound 2-7]
25 | 51 to 500 nM | 11 to 50 nM | O=C(c1cn(CCO)c2cc(-c3cn[nH]c3)ccc12)C1COc2cc(Cl)ccc2O1 (centres unmarked) [Compound 2-10]

Source: US20240368154A1 (GENOSCO Inc., priority 2023, published 2024)
